Values quoted from earlier work as cited in patent US20120142546A1, “HYPOMETHYLATED GENES IN CANCER” (THE JOHNS HOPKINS UNIVERSITY, priority 2007, published 2012).

Test system: cancers involving the lung, esophagus, or pleura

In the case of Nc1ncn([C@H]2C[C@H](O)[C@@H](CO)O2)c(=O)n1 [5-aza-2′-deoxycytidine], the “NY-ESO-1 and MAGEA3 expression in treated patients” value is listed as “upregulated in a proportion of patients”.
